{"source": "patent US12496304B2", "about": "“Selective glucocorticoid receptor modifiers for treating impaired skin wound healing” (AKRIBES BIOMEDICAL GMBH, priority 2019, dated 2025)", "key": {"IL-8 [1]": {"system": "IL-8", "assay": "U937 cell stimulation assay (LPS-induced IL-8)", "format": "cell-based, human", "conditions": "LPS 100 ng/ml, 16 hours (FIG. 16A)", "method": "The human monocytic cell line U937 (ATCC CRL 1593) was routinely grown in RPMI_1640 supplemented by 10% FCS and 2 mM glutamine, and 100 U/ml penicillin/100 μg/ml streptomycin. Cells were seeded at 4×10^5/ml in 50 μl/well of a 384-well plate and combined cells with graded concentrations of test compounds and LPS at 100 ng/ml. After 16 hours, the supernatants were transferred to fresh plates and frozen at −20° C. for IL-8 analysis, using a commercial ELISA kit."}, "IL-1β": {"system": "IL-1β", "assay": "IL-1β secretion into the supernatant in the fibroblast proliferation assay (ELISA)", "format": "cell-based, human", "conditions": "WE-1 (FIG. 2B, 9B), graded concentrations", "method": "Primary human dermal fibroblasts (HDF) were purchased from CELLnTEC, Bern. They were routinely grown in Dulbecco's modified Eagle's medium (DMEM) containing 10% FCS, 2 mM glutamine, and 100 U/ml penicillin/100 μg/ml streptomycin. Media, antibiotics, and glutamine were bought from Lonza. The cells were used at passage 5-15. Cells were trypsinized and seeded at 2500 cells/well in 30 μl into the inner wells of 384-well plates in the absence or presence of graded compound concentrations with or without different dilutions of sterile-filtered WE in medium. For control samples, 30 μl medium was added instead of specific stimuli. The outer wells were loaded with sterile water. The cells were incubated for 72 hours at 37° C.\nAt the end of the incubation period, supernatants were removed for the determination of IL-1β, and the cells were fixed with 4% paraformaldehyde (Morphisto) for 15 minutes at room temperature and washed 3 times with PBS. A control plate was fixed after the overnight adherence of the cells (day 1) to determine the starting cell number.\nIL-1β levels were determined with a commercial ELISA kit. The amount of IL-1β contained in the wound exudate added to the cells was subtracted from the total IL-B in the supernatants in order to determine the cytokine secreted by the cells."}, "IL-8 [2]": {"system": "IL-8", "assay": "Primary human monocyte cytokine secretion assay (spontaneous IL-8)", "format": "cell-based", "conditions": "16 hours (FIG. 16B)", "method": "Primary human monocytes were prepared from peripheral blood mononuclear cells (PBMC). PBMC were isolated from buffy coats obtained from the Red Cross, Vienna, using LymphoPrep (Technoclone). 30 ml of buffy concentrate was diluted 1:2 with PBS, gently underlayered with 15 ml Lymphoprep in a 50 ml Falcon tube and centrifuged for 25 minutes at 1800 rpm at 21° C. The interphase was carefully transferred to a new Falcon tube and filled up to 50 ml with ice cold PBS. After another centrifugation step (10 minutes, 1200 rpm, 4° C.), the cell pellet was washed 3 times with PBS, resuspended in RPMI medium containing 20% FCS and 10% DMSO and frozen in liquid nitrogen. Monocytes were generated from frozen aliquots using positive selection with the CD14 Beads-Kit (Miltenyi) on an autoMACS-Sorter (Miltenyi) according to the manufacturer's instructions.\nCells were seeded at 8×10^5/ml in 50 μl/well of a 384-well plate and combined cells with graded concentrations of test compounds. After 16 hours, the supernatants were transferred to fresh plates and frozen at −20° C. for IL-8 analysis, using a commercial ELISA kit."}, "Collagen 1a": {"system": "Collagen 1a", "assay": "mRNA expression in fibroblast cultures (qRT-PCR): collagen 1", "format": "cell-based, human", "method": "(§1) Cells were seeded into 24-well plates and incubated with compounds in the presence or absence of wound exudates for 72 hours. Total RNA was isolated using the RNeasy Mini Kit (QIAGEN #74106) according to the manufacturer's protocol. RNA integrity and concentration for each sample was confirmed and measured with the Qubit fluorometer. Each RNA sample was then diluted to 2 ng/μl in nuclease-free doubly distilled water.\n(§2) 20 ng of total RNA were reverse-transcribed into cDNA and immediately subjected to PCR amplification using the SuperScript Ill Platinum One-Step Quantitative RT-PCR System with ROX (Invitrogen #11745). qRT-PCR amplifications were performed in 20 μl reactions containing 9 μl 2× Reaction Mix with ROX, 0.4 μl SuperScript III RT/Platinum Taq Mix and 1 μl primer (final: 900 nM, Taqman Gene Expression Assay, Applied Biosystems)\n(§3) The program included 30 minutes of reverse transcription at 48° C., an initial denaturation for 5 minutes at 95° C. followed by 40 cycles of denaturation at 95° C. for 15 seconds and annealing at 60° C. for 60 seconds. Reactions were set up in 96-well format PCR plates (Peqlab #732-2879) and carried out in a Mx3005P Real-Time PCR Detection System (Stratagene).\n(§4) TaqMan Gene Expression Assays (Applied Biosystems) were used, which include preoptimized probe and primer sets specific for the genes being validated. The sequences and ID numbers are listed below:\n(§5) The house keeping gene elongation factor 1a (EF1a) was used as a reference gene. Normalized expression was calculated using the comparative Ct (or ΔCt) method, and fold changes were derived from the 2-ΔΔCt values for each gene. Graphs were prepared using relative Ct values that were calculated by subtracting the EF1a Ct values from the corresponding Ct values for the gene being measured."}, "[3]": {"system": "human dermal fibroblast (HDF) cells", "assay": "Fibroblast-derived matrix formation (FDM) assay, 3D fibroblast culture", "format": "cell-based", "method": "Human dermal fibroblast (HDF) cells were seeded at 1250 cells/well on day −3 into 384-well tissue culture plates, which had been pre-coated for 1 hour at 37° C. with 0.2% gelatin solution (Sigma). When the cells reached confluence (=day 0), a matrix promoting supplement (vitamin C: 2-phospho-L-ascorbic acid trisodium salt, 100 μg/ml; Sigma) was added together with test samples containing TGF-β1 or graded concentrations of compounds −/+WE as described for the HDF proliferation assay. After 4 days, medium was replaced by fresh vitamin C—and stimulus—as well as compound-containing medium, maintaining the conditions initiated on day 0. TGF-β1 was included as a positive control to promote FDM formation. After a total incubation time of 7 to 8 days, FDM production was measured in fixed cultures via SRB staining and evaluated as described above. In some cases, the experiment was stopped and evaluated already on day 4."}, "Collagen 3a": {"system": "Collagen 3a", "assay": "mRNA expression in fibroblast cultures (qRT-PCR): collagen 3", "format": "cell-based, human", "method": "as §1, §2, §3, §4, §5"}, "[4]": {"conditions": "medium in the absence of WE, 72-hour incubation"}}, "data": [{"smiles": "CCS(=O)(=O)c1cc2cc(C[C@@](O)(CC(C)(C)c3ccc(F)cc3C(N)=O)C(F)(F)F)[nH]c2cn1", "note": "[BI-3047]", "values": [{"measurement": "LPS-induced IL-8 secretion in U937 cells", "setting": "IL-8 [1]", "result": "even induced IL-8 secretion at the highest concentrations"}, {"measurement": "IL-1β secretion into the supernatant", "setting": "IL-1β", "result": "much less effect on IL-1β secretion"}, {"measurement": "spontaneous IL-8 secretion in human monocytes", "setting": "IL-8 [2]", "result": "even induced IL-8 secretion at the highest concentrations"}, {"measurement": "collagen 1 mRNA expression", "setting": "Collagen 1a; [4]", "result": "no significant effect on collagen 1 mRNA in the presence of medium"}, {"measurement": "formation of fibroblast-derived matrix (3D)", "setting": "[3]; WE from patient #92 (FIG. 12)", "result": "did not induce matrix formation"}, {"measurement": "collagen 3 mRNA expression", "setting": "Collagen 3a; [4]", "result": "reduction of collagen 3 mRNA with medium"}]}, {"smiles": "CCS(=O)(=O)c1cc2cc(C[C@](O)(CC(C)(C)c3ccc(F)cc3C(N)=O)C(F)(F)F)[nH]c2cn1", "note": "[BI-653048, (R)-2-(4-((5-(Ethylsulfonyl)-1H-pyrrolo[2,3-c]pyridin-2-yl)methyl)-5,5,5-trifluoro-4-hydroxy-2-methylpentan-2-yl)-5-fluorobenzamide]", "values": [{"measurement": "LPS-induced IL-8 secretion in U937 cells", "setting": "IL-8 [1]", "result": "inhibited both LPS-induced and spontaneous IL-8 secretion"}, {"measurement": "IL-1β secretion into the supernatant", "setting": "IL-1β", "result": "inhibited IL-1β secretion at the same concentrations"}, {"measurement": "spontaneous IL-8 secretion in human monocytes", "setting": "IL-8 [2]", "result": "inhibited both LPS-induced and spontaneous IL-8 secretion"}, {"measurement": "collagen 1 mRNA expression", "setting": "Collagen 1a; WE-2, 1 μM, 72-hour incubation (FIG. 3A)", "result": "induced mRNA expression of both collagens 1 and 3 in the presence of wound exudate"}, {"measurement": "collagen 1 mRNA expression", "setting": "Collagen 1a; [4]", "result": "no significant effect on collagen 1 mRNA in the presence of medium"}, {"measurement": "formation of fibroblast-derived matrix (3D)", "setting": "[3]; WE-1, graded concentrations (FIG. 4)", "result": "effective in inducing matrix formation in the presence of wound exudate"}, {"measurement": "collagen 3 mRNA expression", "setting": "Collagen 3a; WE-2, 1 μM, 72-hour incubation (FIG. 3B)", "result": "induced mRNA expression of both collagens 1 and 3 in the presence of wound exudate"}, {"measurement": "collagen 3 mRNA expression", "setting": "Collagen 3a; [4]", "result": "reduction of collagen 3 mRNA with medium"}]}]}
